Reference: US20170151351A1, “Gd-ENCAPSULATED CARBON DOTS AND METHODS OF MAKING AND USING THEREOF” (University of Georgia Research Foundation, Inc., priority 2015, published 2017)

Columns and labels:
[1] = at 7T, literature comparison; cited from earlier work
[2] = system: U87MG (human glioma) cells; experiment: MTT cytotoxicity assay; format: cell-based; details: in the presence of 2.5 mM Ca(II)
Protocol: The cytotoxicity of Gd@C-dots was evaluated with U87MG (human glioma) cells using 3-(4, 5-dimethylthiazolyl-2)-2,5-diphenyltetrazolium bromide (MTT) assays. 2.5 mM Ca(II) was added into the incubation medium; while posing no direct toxicities to cells, such a high concentration of calcium can cause transmetallation to Gd complexes, leading to liberation of free Gd (Corot, C., et al., J. Magn. Reson. Imaging 1998, 8:695). […] The low toxicity was again attributed to the great resistance of Gd@C-dots against biodegradation and transmetallation.
c(RGDyK) affords strong binding affinity toward integrin αvβ3, a cancer biomarker that is seen overexpressed on neoplastic blood vessels and in many types of cancer cells. So the resulting conjugates (hereafter designated as RGD-Gd@C-dots) and unmodified Gd@C-dots were incubated with U87MG cells and imaged under a fluorescence microscope (ex/em: 360/460 nm). Specifically, U87MG cells were cultured in DMEM supplemented with 2 mM L-glutamine, 1.5 g/L sodium bicarbonate, 0.1 mM nonessential amino acids, 1.0 mM sodium pyruvate, and 10% fetal bovine serum at 37° C. in a humidified atmosphere with 5% CO2. 10^5 U87MG cells were seeded in 96-well plates (1×10^4 cells per well) 24 h prior to the experiments. […] The slides were mounted and imaged under an Olympus X71 fluorescence microscope.

[3] = system: U87MG (human glioma) cells; details: no added Ca(II); cited from earlier work

In the case of `O=C([O-])CN(CCN(CC(=O)[O-])CC(=O)O)CCN(CC(=O)[O-])CC(=O)O.[Gd+3]` [Gd-DTPA], the r1 relaxivity [1] is listed as 3.1 mM⁻¹ s⁻¹, the “IC50 (cytotoxicity)” value [2] is listed as 33.1 µg/mL and the “toxicity under normal cell culture conditions” value [3] is listed as “no toxicities”.
